Experimental data: patent publication US20220204953A1, “Mutant of Acid Phosphatase and Application Thereof” (priority 2021, published 2022)
Where a chain is given by its changes, count along the chain named.

Legend:
Format in all cases: biochemical
Conditions in all cases: 30° C., pH 5.0, sodium pyrophosphate, 1-1,000 mM
[1] = target: T1, Pseudomonas aeruginosa acid phosphatase PaAPase variant PaAPaseMu2 (W58P/D135R), SEQ ID NO: 21 (Pseudomonas aeruginosa, UniProt A0A0D6FFE3, D159R/W82P); experiment: Determination of kinetic parameters (phosphorylation of L-ascorbic acid to L-ascorbate-2-phosphate), Mu2
T1 construct: 217 aa form
T1 sequence (A0A0D6FFE3 25-241 W82P/D159R): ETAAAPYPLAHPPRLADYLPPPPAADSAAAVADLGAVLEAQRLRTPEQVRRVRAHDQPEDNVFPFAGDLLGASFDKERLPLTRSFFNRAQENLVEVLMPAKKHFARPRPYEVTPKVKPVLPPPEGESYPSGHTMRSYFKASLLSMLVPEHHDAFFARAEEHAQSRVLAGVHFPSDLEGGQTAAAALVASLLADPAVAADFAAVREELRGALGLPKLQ
Method: (§1) The activities of PaAPase and mutants thereof were determined with high-performance liquid chromatography. 500 μL of a substrate solution (500 mM L-ascorbic acid and 500 mM sodium pyrophosphate) (pH 5.0) and 5 μL of the enzyme liquid react at 30° C. for 30 min, and 95 μL of 42% phosphoric acid was added to terminate the reaction, where an activity unit was defined as the amount of enzyme required for producing 1 μmol of L-ascorbate-2-phosphate within 1 min (Table 3).
(§2) The kinetic parameters, including Vmax, Km and kcat, were calculated by measuring the generation rates of initial products of L-ascorbic acid and L-ascorbate-2-phosphate (1-1,000 mM) at different concentrations at 30° C. and under other conditions consistent with those of the determination of specific enzyme activity.

[2] = target: T2, Pseudomonas aeruginosa acid phosphatase PaAPase, wild type (WT), SEQ ID NO: 1 (Pseudomonas aeruginosa, UniProt A0A0D6FFE3); experiment: Determination of kinetic parameters (phosphorylation of L-ascorbic acid to L-ascorbate-2-phosphate), wild type
T2 construct: 217 aa form
T2 sequence (A0A0D6FFE3 entry or part of it): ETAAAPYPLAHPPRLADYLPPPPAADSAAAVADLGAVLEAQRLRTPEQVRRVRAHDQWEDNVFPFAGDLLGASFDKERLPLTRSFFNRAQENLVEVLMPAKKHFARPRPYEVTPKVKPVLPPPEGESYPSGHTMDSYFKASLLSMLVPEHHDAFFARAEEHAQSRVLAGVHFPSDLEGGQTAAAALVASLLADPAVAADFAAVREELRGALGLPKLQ
Method: as §1, §2

[3] = target: T3, Pseudomonas aeruginosa acid phosphatase PaAPase variant PaAPaseMu1 (D135R), SEQ ID NO: 19 (Pseudomonas aeruginosa, UniProt A0A0D6FFE3, D159R); experiment: Determination of kinetic parameters (phosphorylation of L-ascorbic acid to L-ascorbate-2-phosphate), Mu1
T3 construct: 217 aa form
T3 sequence (A0A0D6FFE3 25-241 D159R): T1 sequence (A0A0D6FFE3 25-241 W82P/D159R) with P58W
Method: as §1, §2

[4] = target: T4, Pseudomonas aeruginosa acid phosphatase PaAPase variant PaAPaseMu3 (Q57H/W58P/D135R), SEQ ID NO: 22 (Pseudomonas aeruginosa, UniProt A0A0D6FFE3, D159R/Q81H/W82P)
T4 construct: 217 aa form
T4 sequence (A0A0D6FFE3 25-241 Q81H/W82P/D159R): T1 sequence (A0A0D6FFE3 25-241 W82P/D159R) with Q57H

O=C1O[C@H]([C@@H](O)CO)C(O)=C1O [L-ascorbic acid]
kcat [1]: 19.2 s⁻¹ | kcat/Km [1]: 86.2 M⁻¹ s⁻¹ | kcat [2]: 16.3 s⁻¹ | kcat/Km [2]: 56.3 M⁻¹ s⁻¹ | kcat [3]: 18.7 s⁻¹ | kcat/Km [3]: 76.3 M⁻¹ s⁻¹ | kcat [4]: 20.1 s⁻¹ | kcat/Km [4]: 95.3 M⁻¹ s⁻¹
